Test results as given in patent US11752159B2, “Compositions and methods for suppressing or reducing systemic immune response in a subject” (THE TRUSTEES OF THE UNIVERSITY OF PENNSYLVANIA, priority 2015, dated 2023).

Experiments:
[1] = system: TSLP; test: Systemic TSLP induction by topical vitamin D3 analogs (ELISA); type: in vivo, mice; details: for serum TSLP levels: topical, ear skin bilaterally, 2 nmol/ear in ethanol, after 5 days of treatment
[2] = Toxicity (morbidity and mortality) of topical vitamin D3 analogs in mice; type: in vivo; details: for dose at which morbidity and mortality of mice was not observed: topical; for toxicity at 2 nmol/ear: topical 2 nmol/ear
Experimental: (§1) VDR stimulation of keratinocytes led to TSLP production, which in certain embodiments caused increase in Treg numbers. The effects of two vitamin D3 analogs (22-Oxacalcitriol, also known as 22-OXA, and EB1089) on TSLP production and Treg numbers were evaluated. Similarly to MC903, 22-OXA and EB1089 were applied to the ear skin bilaterally at a dose of 2 nmol/ear dissolved in ethanol. After 5 days of treatment, the mice were bled and serum TSLP levels were measured. […] To avoid the toxic effect, the dose of 22-OXA and EB1089 was lowered to a point where morbidity and mortality of mice was not observed (0.4 nmol/ear for 22-OXA; 0.04 nmol/ear for EB1089). At this dose, no increase in TSLP level was detected in 22-OXA-treated mice (FIG. 9B).

[3] = system: Tregs; test: Treg % in blood and spleen after topical vitamin D3 analogs; type: in vivo, mice; details: topical 0.04 nmol/ear
Excerpt: FIGS. 10A-10B comprise bar graphs illustrating data derived from topically treating mice with EtOH or EB1089 (0.04 nmol/ear) for 5 days and bleeding them on Day 7. Treg % from (FIG. 10A) blood and (FIG. 10B) spleen are illustrated. N=3 mice/group. *p<0.01 by Student t-test.
as §1

| SMILES | TSLP level at 0.4 nmol/ear ([1]; topical 0.4 nmol/ear) | serum TSLP levels [1] | dose at which morbidity and mortality of mice was not observed [2] | toxicity at 2 nmol/ear [2] | TSLP level at 0.04 nmol/ear ([1]; topical 0.04 nmol/ear) | blood Tregs [3] | splenic Treg numbers [3] |
| --- | --- | --- | --- | --- | --- | --- | --- |
| C=C1/C(=C\C=C2/CCC[C@]3(C)[C@@H]([C@H](C)OCCC(C)(C)O)CC[C@@H]23)C[C@@H](O)C[C@@H]1O [22-OXA, 22-oxa-1α,25(OH)2D3] | no increase | induced detectable amounts of TSLP | 0.4 nmol/ear | toxicity-related morbidity and mortality | – | – | – |
| C=C1/C(=C\C=C2/CCC[C@]3(C)[C@@H]([C@H](C)/C=C/C=C/C(O)(CC)CC)CC[C@@H]23)C[C@@H](O)C[C@@H]1O [EB1089, 1(S),3(R)-dihydroxy-20(R)-(5′-ethyl-5′-hydroxy-hepta-1′(E),3′(E)-dien-1′-yl)-9,10-secopregna-5(Z),7(E),10(19)-triene] | – | induced detectable amounts of TSLP | 0.04 nmol/ear | toxicity-related morbidity and mortality | some TSLP was detectable | only a subtle increase | did not have any effect |
